For the assay, the system named is P388 leukemia ip, CD2F1 mice, survival T/C. Nature of the assay: NCI In Vivo Anticancer Drug Screen. Data for tumor model P388 Leukemia (intraperitoneal) in CD2F1 (CDF1) mice. As to conditions: endpoint: median survival time, higher = longer survival. An outline of the steps: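 Mice carrying the transplanted tumor received test compound or vehicle. Survival was recorded in each group, and the value is the treated-group measurement divided by that of the vehicle-treated control group.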

The mark [1] stands for this setting: dose: 50.0 mg/kg/injection, schedule: Q01DX009 (ip), vehicle: Klucel (hydroxypropylcellulose) (HPC).
The mark [2] stands for this setting: dose: 100.0 mg/kg/injection, schedule: Q01DX009 (ip), vehicle: Klucel (hydroxypropylcellulose) (HPC).
The mark [3] stands for this setting: dose: 200.0 mg/kg/injection, schedule: Q01DX009 (ip), vehicle: Klucel (hydroxypropylcellulose) (HPC).
The mark [4] stands for this setting: dose: 50.0 mg/kg/injection, schedule: Q01DX005 (ip), vehicle: saline with Tween-80.
Setting [5] is: dose: 100.0 mg/kg/injection, schedule: Q01DX005 (ip), vehicle: saline with Tween-80.
Setting [6] is: dose: 200.0 mg/kg/injection, schedule: Q01DX005 (ip), vehicle: saline with Tween-80.
The mark [7] stands for this setting: dose: 50.0 mg/kg/injection, schedule: Q01DX009 (ip), vehicle: saline.
[8] abbreviates: dose: 100.0 mg/kg/injection, schedule: Q01DX009 (ip), vehicle: saline.
Setting [9] is: dose: 200.0 mg/kg/injection, schedule: Q01DX009 (ip), vehicle: saline.
Where [10] appears, read: dose: 12.5 mg/kg/injection, schedule: Q01DX005 (ip), vehicle: saline.
Where [11] appears, read: dose: 25.0 mg/kg/injection, schedule: Q01DX005 (ip), vehicle: saline.
Setting [12] is: dose: 6.25 mg/kg/injection, schedule: Q01DX009 (ip), vehicle: saline.
[13] abbreviates: dose: 12.5 mg/kg/injection, schedule: Q01DX009 (ip), vehicle: saline.
Where [14] appears, read: dose: 50.0 mg/kg/injection, schedule: Q01DX005 (ip), vehicle: Klucel (hydroxypropylcellulose) (HPC).
Setting [15] is: dose: 100.0 mg/kg/injection, schedule: Q01DX005 (ip), vehicle: Klucel (hydroxypropylcellulose) (HPC).
Where [16] appears, read: dose: 200.0 mg/kg/injection, schedule: Q01DX005 (ip), vehicle: Klucel (hydroxypropylcellulose) (HPC).
[17] abbreviates: dose: 6.25 mg/kg/injection, schedule: Q01DX009 (ip), vehicle: Klucel (hydroxypropylcellulose) (HPC).
Where [18] appears, read: dose: 12.5 mg/kg/injection, schedule: Q01DX009 (ip), vehicle: Klucel (hydroxypropylcellulose) (HPC).
The mark [19] stands for this setting: dose: 12.5 mg/kg/injection, schedule: Q01DX009 (ip), vehicle: saline with Tween-80.
The mark [20] stands for this setting: dose: 25.0 mg/kg/injection, schedule: Q01DX009 (ip), vehicle: saline with Tween-80.
Where [21] appears, read: dose: 25.0 mg/kg/injection, schedule: Q01DX009 (ip), vehicle: saline.
[22] abbreviates: dose: 25.0 mg/kg/injection, schedule: Q01DX009 (ip), vehicle: Klucel (hydroxypropylcellulose) (HPC).

Where “and” joins values, the source holds several entries; their conditions need not be identical. Equal entries are not always repeated. Toxic doses and inconclusive results are not listed.

Regarding `OCC1OC(Oc2ccc3cc(Br)ccc3c2)C(O)C1O` (centres undefined), the T/C was 90 % of control under setting [1], 99 % of control under setting [2] and 97 % of control under setting [3].
As for `ClC(Cl)=C(Cl)Sc1ccccc1`, the T/C under setting [4] was 105 % of control, the T/C under setting [5] is 105 % of control and the T/C under setting [6] was 107 % of control.
`CCOc1ccc2nc(N=NC(C(C)=O)C(C)=O)sc2c1`: the T/C under setting [7] is 90 % of control, the T/C under setting [8] was 92 % of control and the T/C under setting [9] is 92 % of control.
With `CC(=O)OCC#CCN1CCCCC1`, the T/C is 102 % of control (dose: 6.25 mg/kg/injection, schedule: Q01DX005 (ip), vehicle: saline); 104 % of control under setting [10]; 101 % of control under setting [11].
On to `NCCN.NCCN.NCCN.[Cl-].[Pt]`, for which the T/C runs as follows: (dose: 1.56 mg/kg/injection, schedule: Q01DX009 (ip), vehicle: saline) 101 % of control; (dose: 3.13 mg/kg/injection, schedule: Q01DX009 (ip), vehicle: saline) 101 % of control; under setting [12], 107 % of control; under setting [13], 99 % of control.
Regarding `CC(C)(C)OC(=O)NC(Cc1ccc(O)cc1)C(=O)O` (centres undefined), the T/C under setting [14] was 102 % of control, the T/C under setting [15] was 103 % of control and the T/C under setting [16] is 96 % of control.
`CC(C)CCCC(C)C1CCC2C3CCC4CC(=O)C(C5(O)C(=O)Nc6ccccc65)CC4(C)C3CCC12C` (centres undefined): the T/C was 95 % of control under setting [17], 95 % of control under setting [18] and 90 % of control under setting [3].
In the case of `O=C1NC(=O)C2CCCCC12` (centres undefined), the T/C under setting [19] was 109 % of control; the T/C under setting [20] is 102 % of control; the T/C (dose: 50.0 mg/kg/injection, schedule: Q01DX009 (ip), vehicle: saline with Tween-80) was 100 % of control; the T/C (dose: 100.0 mg/kg/injection, schedule: Q01DX009 (ip), vehicle: saline with Tween-80) is 100 % of control.
Regarding `COc1cc(-c2ccc(Nc3ccccc3C(=O)O)c(OC)c2)ccc1Nc1ccccc1C(=O)O`, the T/C by setting is: under setting [7], 105 % of control; under setting [8], 100 % of control and 104 % of control and 109 % of control; under setting [9], 110 % of control; (dose: 400.0 mg/kg/injection, schedule: Q01DX009 (ip), vehicle: saline) 117 % of control and 124 % of control and 86 % of control.
For the compound `Nc1cccc(N)n1`, the T/C runs as follows: (dose: 3.12 mg/kg/injection, schedule: Q01DX009 (ip), vehicle: saline) 102 % of control; under setting [12], 101 % of control (2×) and 103 % of control; under setting [13], 100 % of control and 109 % of control and 114 % of control; under setting [21], 112 % of control and 124 % of control.
Turning to `O=S(=O)(C1=C[C@H](O)C[C@@H]1O)c1ccccc1`, the T/C was 98 % of control (dose: 60.0 mg/kg/injection, schedule: Q01DX005 (ip), vehicle: Klucel (hydroxypropylcellulose) (HPC)); 107 % of control (dose: 120.0 mg/kg/injection, schedule: Q01DX005 (ip), vehicle: Klucel (hydroxypropylcellulose) (HPC)); 100 % of control (dose: 240.0 mg/kg/injection, schedule: Q01DX005 (ip), vehicle: Klucel (hydroxypropylcellulose) (HPC)).
As for `COc1cc2cc[n+](C)c(Cc3ccccc3)c2cc1OC`, the T/C (dose: 3.12 mg/kg/injection, schedule: Q01DX009 (ip), vehicle: Klucel (hydroxypropylcellulose) (HPC)) is 111 % of control; the T/C under setting [17] was 111 % of control; the T/C under setting [18] is 114 % of control; the T/C under setting [22] was 121 % of control; the T/C under setting [1] was 160 % of control.
As for `[N-]=[N+]=Nc1ccccc1C(=O)NCCNC(=O)c1ccccc1N=[N+]=[N-]`, the T/C was 94 % of control (dose: 6.25 mg/kg/injection, schedule: Q01DX005 (ip), vehicle: saline with Tween-80); 91 % of control (dose: 12.5 mg/kg/injection, schedule: Q01DX005 (ip), vehicle: saline with Tween-80); 87 % of control under setting [6].
Consider `Cc1ccc(S(=O)(=O)NCC(CNS(=O)(=O)c2ccc(C)cc2)C(C)(C)C)cc1`, for which the T/C by setting is: (dose: 100.0 mg/kg/injection, schedule: Q01DX001 (ip), vehicle: Klucel (hydroxypropylcellulose) (HPC)) 93 % of control; (dose: 200.0 mg/kg/injection, schedule: Q01DX001 (ip), vehicle: Klucel (hydroxypropylcellulose) (HPC)) 93 % of control.
As for `CN1C(=O)C2CC(=O)NC(=O)C2C1=O` (centres undefined), the T/C under setting [4] is 97 % of control, the T/C under setting [5] is 96 % of control and the T/C under setting [6] is 101 % of control.
Consider `O=C1C2CCC(C2)[CH]1[Hg][Cl]` (centres undefined), for which the T/C (dose: 6.25 mg/kg/injection, schedule: Q01DX009 (ip), vehicle: saline with Tween-80) is 107 % of control; the T/C under setting [19] was 112 % of control; the T/C under setting [20] was 88 % of control.
Take `CC1(C)CN(c2ccccc2)N(CO)C1=O`: the T/C reads like this: (dose: 6.25 mg/kg/injection, schedule: Q04DX003 (ip), vehicle: saline) 101 % of control; (dose: 12.5 mg/kg/injection, schedule: Q04DX003 (ip), vehicle: saline) 109 % of control.
For `Cc1c(Cc2c(C)n(C)n(-c3ccccc3)c2=O)c(=O)n(-c2ccccc2)n1C`, the T/C is, setting by setting: under setting [22], 100 % of control and 103 % of control; under setting [1], 106 % of control and 89 % of control; under setting [2], 99 % of control and 88 % of control.
On to `COc1ccc(CNNc2ccc(NC(C)=O)cc2N)cc1`, for which the T/C is 90 % of control (dose: 25.0 mg/kg/injection, schedule: Q04DX003 (ip), vehicle: saline with Tween-80); 88 % of control (dose: 50.0 mg/kg/injection, schedule: Q04DX003 (ip), vehicle: saline with Tween-80); 105 % of control (dose: 100.0 mg/kg/injection, schedule: Q04DX003 (ip), vehicle: saline with Tween-80).
Turning to `CC1CN(C(C)(C)C)CO1` (centres undefined), the T/C was 112 % of control and 88 % of control under setting [10]; 107 % of control under setting [11]; 114 % of control and 117 % of control and 119 % of control (dose: 50.0 mg/kg/injection, schedule: Q01DX005 (ip), vehicle: saline); 119 % of control and 120 % of control (dose: 100.0 mg/kg/injection, schedule: Q01DX005 (ip), vehicle: saline); 107 % of control (dose: 200.0 mg/kg/injection, schedule: Q01DX005 (ip), vehicle: saline).
In the case of `CC(=O)CC(=O)Nc1ccccc1`, the T/C is, setting by setting: under setting [13], 105 % of control; under setting [21], 94 % of control; under setting [7], 88 % of control.
Consider `CC(=O)C1=C([Si](C)(C)C)N=NC1(C)C`, for which the T/C was 111 % of control under setting [4], 109 % of control under setting [5] and 102 % of control under setting [6].
`[Cl][Pt+2][Cl].[NH-]Cc1ccccc1[NH-]`: the T/C by setting is: (dose: 6.25 mg/kg/injection, schedule: Q04DX002 (ip), vehicle: saline with Tween-80) 164 % of control; (dose: 12.5 mg/kg/injection, schedule: Q04DX002 (ip), vehicle: saline with Tween-80) 164 % of control; (dose: 25.0 mg/kg/injection, schedule: Q04DX002 (ip), vehicle: saline with Tween-80) 167 % of control.
Regarding `O=C(O)CNC(=O)OCC1c2ccccc2-c2ccccc21`, the T/C runs as follows: under setting [14], 100 % of control; under setting [15], 95 % of control; under setting [16], 100 % of control.
Turning to `COc1ccc(Cc2nc(C)cc3cc(OC)c(OC)cc23)cc1OC`, the T/C by setting is: (dose: 50.0 mg/kg/injection, schedule: Q01DX009 (ip), vehicle: water) 111 % of control; (dose: 100.0 mg/kg/injection, schedule: Q01DX009 (ip), vehicle: water) 102 % of control; (dose: 200.0 mg/kg/injection, schedule: Q01DX009 (ip), vehicle: water) 89 % of control.
Regarding `CCO/C=C1/N=C(c2ccc3ccccc3c2)OC1=O`, the T/C was 101 % of control (dose: 60.0 mg/kg/injection, schedule: Q01DX005 (ip), vehicle: saline + Tween-80 + alcohol); 100 % of control (dose: 120.0 mg/kg/injection, schedule: Q01DX005 (ip), vehicle: saline + Tween-80 + alcohol); 86 % of control (dose: 240.0 mg/kg/injection, schedule: Q01DX005 (ip), vehicle: saline + Tween-80 + alcohol).

(Values after PubChem BioAssay AID330 (DTP/NCI, 2004).)
